Measured values published in patent US20260008760A1, “DIPEPTIDYL PEPTIDASE 1 INHIBITORS AND USES THEREOF” (Insmed Incorporated, priority 2024, published 2026).

Experiments:
[1] = molecular target: human DPP1 enzyme (Homo sapiens, UniProt P53634); experiment: Human DPP1 Enzyme IC50 Assay; type: biochemical; design: was first proteolytically processed into its mature form using recombinant human cathepsin L; purchased R&D Systems; conditions: activated recombinant human DPP1, 400 μM H-Gly-Arg-AMC, 10 minutes pre-incubation at 37° C., pH 6.0; average of n runs; read-out: Avg. IC50 (Human DPP1 enzyme IC50 value ranges)
human DPP1 enzyme, sequence (P53634 25-134 limits assumed): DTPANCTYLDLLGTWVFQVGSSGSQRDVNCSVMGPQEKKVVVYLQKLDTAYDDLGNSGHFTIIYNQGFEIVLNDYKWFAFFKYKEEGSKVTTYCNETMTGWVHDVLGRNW
human DPP1 enzyme, sequence (P53634 231-394 limits assumed): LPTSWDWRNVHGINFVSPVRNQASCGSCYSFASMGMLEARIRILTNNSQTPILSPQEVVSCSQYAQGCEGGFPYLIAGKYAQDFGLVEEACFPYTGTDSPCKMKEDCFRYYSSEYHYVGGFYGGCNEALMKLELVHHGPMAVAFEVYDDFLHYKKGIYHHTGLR
human DPP1 enzyme, sequence (P53634 395-463 limits assumed): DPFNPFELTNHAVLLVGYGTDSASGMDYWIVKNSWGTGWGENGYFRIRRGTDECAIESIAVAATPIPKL
Procedure, shortened: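 Recombinant human DPP1, pre-activated with cathepsin L (pH 4.5), was preincubated with compound 10 min at 37 °C in MES pH 6.0, 50 mM NaCl, 5 mM DTT, 1% DMSO. Cleavage of 400 μM (final) H-Gly-Arg-AMC followed by fluorescence (350/450 nm) over 90 min at 37 °C; IC50 from four-parameter logistic fit versus no-compound control.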

[2] = molecular target: DPP1 in HL-60 cells (Homo sapiens, UniProt P53634); experiment: DPP1 Cell Single-Point Percent Inhibition Testing; type: cell-based; design: host or cells: HL-60 cells; conditions: final compound concentration 5 nM, n = 1
DPP1 in HL-60 cells, sequence (P53634 25-463): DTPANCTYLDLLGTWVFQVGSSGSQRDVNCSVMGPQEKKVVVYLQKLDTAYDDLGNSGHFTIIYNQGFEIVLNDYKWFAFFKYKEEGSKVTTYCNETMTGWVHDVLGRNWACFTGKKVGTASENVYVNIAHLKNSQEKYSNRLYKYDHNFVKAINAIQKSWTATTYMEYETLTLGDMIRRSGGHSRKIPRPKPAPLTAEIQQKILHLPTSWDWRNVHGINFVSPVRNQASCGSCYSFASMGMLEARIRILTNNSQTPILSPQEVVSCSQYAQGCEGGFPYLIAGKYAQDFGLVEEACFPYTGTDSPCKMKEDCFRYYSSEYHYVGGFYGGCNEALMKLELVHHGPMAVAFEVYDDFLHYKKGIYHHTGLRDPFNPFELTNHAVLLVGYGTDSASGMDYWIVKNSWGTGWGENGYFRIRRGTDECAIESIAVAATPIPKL
Procedure, shortened: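 HL-60 cells in unsupplemented RPMI preincubated 60 min at 37 °C with test article (5 nM final, 0.1% DMSO), then given cell-permeable H-Gly-Phe-AFC (100 μM final) for 30 min. Fluorescence at 400/505 nm; percent inhibition versus vehicle after subtracting cell-free background and 10 μM brensocatib non-specific signal.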

Row | IC50 [1] | inhibition at 0.005 µM [2] | SMILES
1 | > 15 nM | ≤ 76.5% | CN1CCCC2(C1)C(=O)N(C)c1ccc(-c3ccc(C[C@@H](C#N)NC(=O)[C@@H]4CNCCCO4)cc3)cc12 (stereo partly drawn) [Compound 18, (2S)—N-[(1S)-1-cyano-2-(4-{1,1′-dimethyl-2-oxospiro[indole-3,3′-piperidin]-5-yl}phenyl)ethyl]-1,4-oxazepane-2-carboxamide]
2 | > 15 nM | ≤ 76.5% | N#C[C@H](Cc1ccc(-c2cnc3c(n2)CCCC3)cc1)NC(=O)[C@@H]1CNCCCO1 [Compound A11, (2S)—N-[(1S)-1-cyano-2-[4-(5,6,7,8-tetrahydroquinoxalin-2-yl)phenyl]ethyl]-1,4-oxazepane-2-carboxamide]
